Laboratory results as given in US7410965B2, “Delayed release pharmaceutical composition containing 1-dimethyl-amino-3-(3-methoxyphenyl)-2-methyl-pentan-3-ol” (Gruenenthal GmbH, priority 2002, dated 2008).
Marks after values point to notes of the source that are not given here.

Tested on: female Sprague-Dawley rats
Test: Cystometry test system on conscious fresh rats
Format: in vivo, rat
Conditions: for BC Bladder Capacity, change compared to the baseline value / ICI Inter-Contraction Interval, change compared to the baseline value / TP Threshold Pressure, change compared to the baseline value: effect maximum; for effect on the bladder regulation (in words): cystometry, iv
Experimental: Cystometry investigations were carried out on fresh female Sprague-Dawley rats according to the method of Ishizuka et al. ((1997), Naunyn-Schmiedeberg's Arch. Pharmacol. 355: 787-793). Three days after implantation of bladder and venous catheters the animals were investigated in the conscious state while freely moving. The bladder catheter was connected to a pressure gauge and an injection pump. The animals were placed in metabolic cages that enabled the volume of urine to be measured. Physiological saline solution was infused (10 ml/hour) into the emptied bladder and the bladder pressure and volume of urine were continuously recorded. After a stabilisation phase a 20-minute phase was recorded that was characterised by normal, reproducible micturition cycles. The following parameters among others were measured: • threshold pressure TP, bladder pressure immediately before micturition, • bladder capacity BC, residual volume after prior micturition plus volume of infused solution during the filling phase, • intercontraction interval ICI, i.e. the time interval between consecutive micturition.
An increase in the threshold pressure (TP) indicates an important therapeutic effect in one of the medical conditions covered by the invention. Also, the intercontraction interval (ICI) is an important parameter for measuring the physiological effectiveness of a substance in the treatment of urinary incontinence, as is the bladder capacity (BC). In this connection, on account of the widely differing causes of the symptoms of these disease patterns it is not necessary to influence positively all three parameters in order for a medicament to be effective.
After recording three reproducible micturition cycles to provide a baseline value, the test substances (1 (1.0 mg/kg), 2 (0.1; 0.3 and 0.5 mg/kg) and 21 (0.5 mg/kg), in a vehicle comprising 0.9% NaCl were applied intravenously and the effect on the cystometric parameters was recorded at 90 to 120 minutes. In the effect maximum the mean value of 3 micturition cycles was determined and recorded as a percentage change compared to the baseline value (Table 1).

Row | Structure (SMILES) | BC Bladder Capacity, change compared to the baseline value (1.0 mg/kg iv) | ICI Inter-Contraction Interval, change compared to the baseline value (1.0 mg/kg iv) | TP Threshold Pressure, change compared to the baseline value (1.0 mg/kg iv) | BC Bladder Capacity, change compared to the baseline value (0.1 mg/kg iv) | ICI Inter-Contraction Interval, change compared to the baseline value (0.1 mg/kg iv) | TP Threshold Pressure, change compared to the baseline value (0.1 mg/kg iv) | BC Bladder Capacity, change compared to the baseline value (0.3 mg/kg iv) | ICI Inter-Contraction Interval, change compared to the baseline value (0.3 mg/kg iv) | TP Threshold Pressure, change compared to the baseline value (0.3 mg/kg iv) | BC Bladder Capacity, change compared to the baseline value (0.5 mg/kg iv) | ICI Inter-Contraction Interval, change compared to the baseline value (0.5 mg/kg iv) | TP Threshold Pressure, change compared to the baseline value (0.5 mg/kg iv) | effect on the bladder regulation (in words)
1 | CC[C@](O)(c1cccc(OC)c1)[C@H](C)CN(C)C.Cl (racemic) [Compound 1, (2RS,3RS)-1-dimethylamino-3-(3-methoxyphenyl)-2-methylpentan-3-ol; hydrochloride] | +31%*** | +42% | +94%** |  |  |  |  |  |  |  |  |  | 
2 | CC[C@](O)(c1cccc(OC)c1)[C@H](C)CN(C)C.Cl [Compound 2, (+)-(2R,3R)-1-dimethylamino-3-(3-methoxyphenyl)-2-methylpentan-3-ol; hydrochloride] |  |  |  | +7.8% | +15.6% | +28.5%** | +33%* | +28%* | +122%** | +20.6%* | +28.6%** | +77.5%** | very effective
3 | CC[C@@](O)(c1cccc(OC)c1)[C@@H](C)CN(C)C.Cl [Compound 21, (−)-(2S,3S)-1-dimethylamino-3-(3-methoxyphenyl)-2-methylpentan-3-ol; hydrochloride] |  |  |  |  |  |  |  |  |  | +3% | +10% | −1.1% | does not exhibit such a marked effect
